In ChEMBL document CHEMBL5233243, “Design and discovery of boronic acid drugs” (Eur J Med Chem, 2020):
Converted amounts (≈) assume the structure as drawn. Each block holds one compound with its values, some of them ahead of it. Residues, ends and D or L forms follow the SMILES beside them. *: point of attachment. CF3 = FC(F)(F)*; Moc = COC(=O)*

Columns and labels:
[1] = Solubility of compound at pH 2; type: physicochemical; conditions: buffer
Autotaxin = Autotaxin (Homo sapiens, UniProt Q13822); test: Inhibition of autotaxin (unknown origin)
[2] = Inhibition of beta-lactamase AmpC (unknown origin); set-up: species or system Bacteria
Escherichia coli = test: Antibacterial activity against Escherichia coli; type: functional
[3] = system: Human immunodeficiency virus; test: Antiviral activity against HIV infected in human MT-2 cells; type: functional, organism-based; conditions: Human immunodeficiency virus 1, MT2
[4] = biological target: Human immunodeficiency virus type 1 protease (Human immunodeficiency virus 1, UniProt Q72874); test: Inhibition of HIV-1 protease
Neutrophil elastase = biological target: T1, Neutrophil elastase (Homo sapiens, UniProt P08246); test: Inhibition of human neutrophil elastase
T1 sequence (P08246 whole entry): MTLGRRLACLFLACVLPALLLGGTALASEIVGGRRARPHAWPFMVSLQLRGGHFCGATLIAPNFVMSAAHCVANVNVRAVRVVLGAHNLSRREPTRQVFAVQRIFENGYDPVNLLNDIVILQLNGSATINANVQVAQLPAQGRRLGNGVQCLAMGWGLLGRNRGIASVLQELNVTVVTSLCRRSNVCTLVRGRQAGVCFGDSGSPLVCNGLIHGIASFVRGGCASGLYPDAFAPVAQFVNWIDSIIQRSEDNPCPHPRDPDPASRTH

MCF7 = test: Antiproliferative activity against human MCF7 cells assessed as inhibition of cell growth incubated for 48 hrs by SRB assay; type: functional, cell-based; conditions: MCF7, 48 h

Compound: COc1ccc(/C=C\c2cc(OC)c(OC)c(OC)c2)cc1B(O)O
solubility [1]: 33.8 µg/mL (≈ 98.2 µM)

IC50 (Autotaxin): 28 nM
Compound: COc1cc(/C=C2\SC(=O)N(Cc3ccc(F)cc3)C2=O)ccc1OCc1ccc(B(O)O)cc1

Ki [2]: 0.8 nM
Compound: O=S(=O)(Cc1ccc(-c2nnn[nH]2)nc1)NCB(O)O

Ki [2]: 10 nM
MIC (Escherichia coli): 1 µg/mL (≈ 4.46 µM)
Compound: OB(O)c1cnn(-c2cc(Cl)ncn2)c1

IC50 [3]: > 1000 nM
Ki [4]: 0.0129 nM
Compound: CC(C)CN(C[C@@H](O)[C@H](Cc1ccccc1)NC(=O)O[C@H]1CO[C@H]2OCC[C@H]21)S(=O)(=O)c1ccc(C(=O)O)cc1

IC50 (Neutrophil elastase): 0.27 nM
Compound: COC(=O)N[C@H](C(=O)N1CCC[C@H]1C(=O)N[C@H](B(O)O)C(C)C)C(C)C

IC50 [3]: 37.7 nM
Ki [4]: 0.0155 nM
Compound: CC(C)CN(C[C@@H](O)[C@H](Cc1ccccc1)NC(=O)OC1C2COC3OCC1C3C2)S(=O)(=O)c1ccc(B(O)O)cc1 (stereo partly drawn)

IC50 (Neutrophil elastase): 135 nM
Compound: COC(=O)N[C@H](C(=O)N1CCC[C@H]1C(=O)N[C@H](C(=O)C(F)(F)F)C(C)C)C(C)C (Moc-Val-Pro-Val-CF3)

Compound: COc1ccc(/C=C\c2cc(OC)c(OC)c(OC)c2)cc1O [COMBRETASTATIN A4]
IC50 (MCF7): 32 nM
solubility [1]: 18.9 µg/mL (≈ 59.7 µM)
